In patent publication US4064121A, “Substituted nitrobenzophenone derivatives and a process for the preparation thereof” (Richter Gedeon Vegyeszeti Gyar Rt., priority 1973, dated 1977):

Tests used:
[1] = LD50 p.o. (acute toxicity); conditions: in vivo, po, species not given
[2] = Antipyretic effect (rectal temperature after yeast suspension and pyrago in male rats); format: in vivo; conditions: 40 mg./kg. orally, yeast and pyrago fever, recorded for 5 hours
Procedure: To test the antipyretic effect, a 15% yeast suspension was administered to male rats each weighing 180 ±10 g. No food was given to the animals, they could consume, however, arbitrary amount of water. 16 hours after the administration of yeast the rectal body temperature of the animals was taken, and the animals were treated with pyrago in an intravenous dosage of 50 M bact./animal. The compound to be tested was administered orally into the animals, thereafter the change in rectal temperature both for the treated and the control animals was recorded for 5 hours, using an "Elab" type electrothermometer. Phenacetine, used as reference substance, and the compounds of the invention were administered in dosages of 40 mg./kg. body weight.

[3] = tested on: central nervous system; conditions: known effects at the test animals; cited from earlier work
[4] = tested on: liver microsomal enzyme; experiment: Enzyme inductive effect (shortening of hexobarbital sleeping time in Wistar female rats); format: in vivo; conditions: for Mean duration of sleeping ± S.E.: 60 mg./kg. p.o., 24 hours later hexobarbital 40 mg./kg. i.v., female Wistar rats, control 19.4 ± 1.88
Procedure: As reference substances, phenobarbital and phenacetine were used in the experiments. The pharmacological tests were carried out as follows:
To investigate the enzyme inductive effect, Wistar female rats, each weighing 40 to 50 g. were treated with pure solvent, or with a dosage of 60 mg./kg. of phenobarbital or the compound to be tested, respectively. 24 hours after this treatment 40 mg./kg. of hexobarbital were administered intravenously into the animals. The reduction of the elimination period and the liver enzyme induction was expressed as the shortening of the duration of sleeping.

[5] = tested on: central nervous system; experiment: Central nervous system effects (anticonvulsive, rotarod muscle relaxation, sedative tests); format: in vivo; conditions: in the dosage utilized

CC[N+]1(C)CCN(c2ccc(C(=O)c3ccccc3)cc2[N+](=O)[O-])CC1 [Example B11, 3-nitro-4-(N-methyl-piperazino)-benzophenone ethobromide]
LD50 [1]: > 3000 mg/kg | Decrease of temperature [2]: -1.1 °C

CC(C)CN(CC(C)C)c1ccc(C(=O)c2ccccc2)cc1[N+](=O)[O-] [Example B9, 3-Nitro-4-(N.N-diisobutylamino)-benzophenone]
LD50 [1]: > 3000 mg/kg | Decrease of temperature [2]: -1.0 °C

CCOc1ccc(NC(C)=O)cc1 [Phenacetine, reference compound]
Decrease of temperature [2]: -1.1 °C

CCC1(c2ccccc2)C(=O)NC(=O)NC1=O [Phenobarbital, reference compound]
effects on the central nervous system [3]: significant effects on the central nervous system, which manifests at the test animals in ataxia, sedatio and anticonvulsive effect | Mean duration of sleeping ± S.E. ([4]; * = (below a significance level of 5 %)): 14.2 ± 1.88 min

O=C(c1ccccc1)c1ccc(N2CCOCC2)c([N+](=O)[O-])c1 [Example B2, 3-nitro-4-morpholino-benzophenone]
LD50 [1]: 1200 mg/kg | Mean duration of sleeping ± S.E. ([4]; * = p>0.05 (below a significance level of 5 %)): 14.6 ± 1.65 min | inductive effect ([4]; in words, compared with phenobarbital): the same as that of phenobarbital | effect on the central nervous system [5]: no effect on the central nervous system
